Measurements from PMC12281424, “A Rac-specific competitive inhibitor of guanine nucleotide binding reduces metastasis in triple-negative breast cancer” (Cell Reports Medicine, 2025).

Tests used:
[1] = test system: MDA-MB-468 spheroids; assay: 3D invasion assay; assay type: cell-based; details: 10^-5 M
Protocol: Figure 5 A41 decreases growth and invasiveness of TNBC cells in vitro (A) Representative images of RAC-GTP levels (red) in MDA-MB-468 Luc cells in the absence (CTL) and presence of EHT1864, NSC23766, or A41 (1 h at 10 μM) (left). Luciferase (Luc, green) was used to detect the cells. RAC-GTP mean fluorescence intensity was quantified inside the cell area (right) (n = 31–37 cells from 3 independent experiments; ∗p < 0.05, ∗∗∗p < 0.001) (scale bars: 10 μm). […] (C) Quantification of colony number of indicated cancer cell lines in the presence of A41 (10 μM) expressed as the percentage of control in the absence of A41. Results shown are representative of N > 3 independent experiments. (D) Immunoblot analysis and corresponding quantification of AKT and P44/42 expression and phosphorylation (pAKT, p44/42) in MDA-MB-468 Luc cells in the absence (−) and presence of NSC23766 or A41 (1 h at 10^−5 M). […] (E) 3D invasion assay of MDA-MB-468 Luc and cancer-associated fibroblasts (CAFs) and corresponding quantification (scale bars: 200 μm). […]
3D-spheroids were obtained, according the protocol previously described,[62] by re-suspending cells at a concentration of 1.25 × 10^4 cells/ml in 20% Methyl-cellulose/80% DMEM 10% FBS. […] Invasion was monitored by fully automated Dmi6000b Wide Field Fluorescence Microscope (Leica Microsystems, Wetzlar, Germany) during 48h.

[2] = biological target: T1, RAC1b (Homo sapiens, UniProt P63000); assay: RAC-GTP pull-down in transfected NIH-3T3 fibroblasts; assay type: cell-based; details: 10^-5 M
T1 construct: expressed in transfected cells; host or cells: NIH-3T3 fibroblasts
Protocol: (§1) Figure 4 A41 selectively impairs RAC protein activation (A) Representative surface plasmon resonance (SPR) sensograms of binding of immobilized RHOA or CDC42 with indicated increasing concentrations of A41 (N > 3). (B) Effect of A41 on GEF-stimulated RAC2, RHOG, RHOA, and CDC42 nucleotide exchange. Purified small G proteins were pre-loaded with GDP and then nucleotide exchange was monitored by the increase in fluorescence following mant-GTP binding in the absence and presence of A41 (5 μM) (N = 3). Kobs is expressed as mean ± SEM. ∗p < 0.001 vs. control. (C) Effect of A41 on RAC1 G30S activation. RAC1 G30S activation was monitored by the increase in fluorescence following mant-GTP binding in the absence and presence of A41 (5 μM). […] Data are expressed as mean ± SEM. (D) Immunoblot analysis and associated quantification of RAC-GTP level and total RAC expression in NIH-3T3 fibroblasts expressing RAC wild-type (RAC1 WT) or RAC1 oncomutants (RAC1 P29S and RAC1b) in the absence (Ctrl) and presence of A41 (10 μM). RAC activation was measured as the ratio of RAC-GTP to total RAC and expressed relative to Ctrl condition. […]
(§2) Pull-down assay using GST-PBD fusion proteins were performed on NIH-3T3 lysates to assess RAC1 activity as previously described.[63] The precipitated active RAC was subjected to SDS-PAGE and detected by immunoblot with anti-RAC1 antibody (BD biosciences) (dilution 1/1000).

[3] = biological target: T2, RAC1 P29S (Homo sapiens, UniProt P63000, P29S); assay: as above; assay type: cell-based; details: 10^-5 M
T2 construct: expressed in transfected cells; host or cells: NIH-3T3 fibroblasts
Protocol: as §1, §2

[4] = biological target: Arg(h) (Homo sapiens, UniProt P42684); assay: Kinase Profiler; assay type: biochemical
Chain of Arg(h) (P42684 whole entry): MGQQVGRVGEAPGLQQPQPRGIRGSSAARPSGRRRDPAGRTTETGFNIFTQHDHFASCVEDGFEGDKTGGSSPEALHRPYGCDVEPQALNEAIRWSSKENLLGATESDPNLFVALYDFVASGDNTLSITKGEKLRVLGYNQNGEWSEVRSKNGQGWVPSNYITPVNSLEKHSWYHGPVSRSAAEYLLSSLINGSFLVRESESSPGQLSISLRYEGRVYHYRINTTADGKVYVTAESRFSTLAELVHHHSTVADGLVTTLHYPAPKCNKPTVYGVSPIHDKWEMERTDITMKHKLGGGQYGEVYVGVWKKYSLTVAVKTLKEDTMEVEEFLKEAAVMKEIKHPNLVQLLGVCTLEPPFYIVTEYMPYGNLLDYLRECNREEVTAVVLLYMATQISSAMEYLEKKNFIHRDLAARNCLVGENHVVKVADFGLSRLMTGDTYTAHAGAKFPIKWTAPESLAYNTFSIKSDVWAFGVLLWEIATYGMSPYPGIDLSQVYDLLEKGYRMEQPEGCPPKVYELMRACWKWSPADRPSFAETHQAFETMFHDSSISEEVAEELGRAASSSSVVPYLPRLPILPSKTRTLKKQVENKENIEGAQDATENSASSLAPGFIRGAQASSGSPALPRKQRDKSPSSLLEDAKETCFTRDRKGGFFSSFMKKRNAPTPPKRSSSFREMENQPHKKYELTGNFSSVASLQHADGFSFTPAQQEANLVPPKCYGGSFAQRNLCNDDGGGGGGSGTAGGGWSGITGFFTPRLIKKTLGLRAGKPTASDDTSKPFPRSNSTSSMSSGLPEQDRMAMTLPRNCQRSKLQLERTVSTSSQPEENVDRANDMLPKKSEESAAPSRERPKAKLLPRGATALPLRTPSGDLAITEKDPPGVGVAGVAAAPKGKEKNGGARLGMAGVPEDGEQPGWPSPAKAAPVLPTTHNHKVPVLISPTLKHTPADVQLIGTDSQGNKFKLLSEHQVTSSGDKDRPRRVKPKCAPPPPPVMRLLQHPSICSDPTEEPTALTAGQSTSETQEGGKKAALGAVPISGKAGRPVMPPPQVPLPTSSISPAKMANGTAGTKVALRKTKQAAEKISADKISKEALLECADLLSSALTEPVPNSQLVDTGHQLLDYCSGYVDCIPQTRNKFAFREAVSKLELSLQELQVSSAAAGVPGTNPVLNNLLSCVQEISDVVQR
Protocol: Blood cell counts, kinase profiler, safety screen, bacterial cytotoxicity, Ames, micronucleus assays were performed by the company Eurofins (France). The kinase profiler was performed by the company Eurofins (Discovery, Panlab and Cerep).

Compound: COc1ccc(OC)c(NS(=O)(=O)c2ccc(NC(=O)CCSc3ccc(C)cc3)cc2)c1 [Compound A41]
- size of the spheroids [1]: not affected
- migration area of spheroids ([1]; 3D collagen gel): reduced the migration area
- activity of RAC1b (RAC-GTP) [2]: reduced the activity
- activity of RAC P29S (RAC-GTP) [3]: reduced the activity
- Activity(%) [4]: 122%
